Results on seven molecules are retold here after ChEMBL document CHEMBL1201862, “PubChem BioAssay data set” (2004).

The source made the active and inactive calls.

The term EC50 denotes the concentration at which the effect is half-maximal. In general, CC50 refers to the concentration that lowers cell viability or growth by half.

Test [1] concerns the target G2/mitotic-specific cyclin-B1 (Homo sapiens, UniProt P14635). The test is described as follows: Counterscreen assay for inhibitors of Wee1 degradation: dose response cell-based assay to identify inhibitors of cyclin B degradation. [Related pubchem assays: 1410, 1321 ]. In kind it is functional. (The purpose of a counterscreen is to sort out artefacts and off-target activity.)

A further test concerns the target Wee1-like protein kinase (Homo sapiens, UniProt P30291). The test is described as follows: Dose Response Cell-based Assay for Inhibitors of Wee1 Degradation. [Related pubchem assays: 1410, 1321 ]. In kind it is functional.
A short description of test [2]: HEK-293T cell viability reduction – luminescence, B-cell screen hits, cytotoxicity control for BCR NF-kB inhibitor project, dose response (AID 489021).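 Further: HEK-293T cells carrying an NF-kB luciferase reporter; cells exposed to compound for about 14 hours before viability readout.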 In kind it is functional, cell-based.
The next test concerns the target Protein Wnt-3a (Mus musculus, UniProt P27467). The test is described as follows: antagonism of Wnt3a pathway luciferase reporter – Wnt-LIGHT cells, luminescence, selectivity assay for Gli-SUFU antagonist project, dose response (AID 651570).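 Further: Wnt-LIGHT reporter cells stimulated with conditioned medium from Wnt3a-producing cells.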 In kind it is functional. Particulars: read-out: IC50_Mean.
The nature of test [3]: Counterscreen for IDE inhibitors: Luminescence-based cell-based high throughput dose response assay to identify compounds that are cytotoxic to HEK cells. [Related pubchem assays: 434962 (Primary screen (IDE inhibitors in singlicate)), 449730 (Counterscreen (Cytotoxicity in triplicate)), 435028 (Confirmation (IDE inhibitors in triplicate)) …. Format: functional. Particulars: HEK293.

The target in the next test is T1, Insulin-degrading enzyme (Homo sapiens, UniProt P14735).
T1 sequence (P14735 whole entry): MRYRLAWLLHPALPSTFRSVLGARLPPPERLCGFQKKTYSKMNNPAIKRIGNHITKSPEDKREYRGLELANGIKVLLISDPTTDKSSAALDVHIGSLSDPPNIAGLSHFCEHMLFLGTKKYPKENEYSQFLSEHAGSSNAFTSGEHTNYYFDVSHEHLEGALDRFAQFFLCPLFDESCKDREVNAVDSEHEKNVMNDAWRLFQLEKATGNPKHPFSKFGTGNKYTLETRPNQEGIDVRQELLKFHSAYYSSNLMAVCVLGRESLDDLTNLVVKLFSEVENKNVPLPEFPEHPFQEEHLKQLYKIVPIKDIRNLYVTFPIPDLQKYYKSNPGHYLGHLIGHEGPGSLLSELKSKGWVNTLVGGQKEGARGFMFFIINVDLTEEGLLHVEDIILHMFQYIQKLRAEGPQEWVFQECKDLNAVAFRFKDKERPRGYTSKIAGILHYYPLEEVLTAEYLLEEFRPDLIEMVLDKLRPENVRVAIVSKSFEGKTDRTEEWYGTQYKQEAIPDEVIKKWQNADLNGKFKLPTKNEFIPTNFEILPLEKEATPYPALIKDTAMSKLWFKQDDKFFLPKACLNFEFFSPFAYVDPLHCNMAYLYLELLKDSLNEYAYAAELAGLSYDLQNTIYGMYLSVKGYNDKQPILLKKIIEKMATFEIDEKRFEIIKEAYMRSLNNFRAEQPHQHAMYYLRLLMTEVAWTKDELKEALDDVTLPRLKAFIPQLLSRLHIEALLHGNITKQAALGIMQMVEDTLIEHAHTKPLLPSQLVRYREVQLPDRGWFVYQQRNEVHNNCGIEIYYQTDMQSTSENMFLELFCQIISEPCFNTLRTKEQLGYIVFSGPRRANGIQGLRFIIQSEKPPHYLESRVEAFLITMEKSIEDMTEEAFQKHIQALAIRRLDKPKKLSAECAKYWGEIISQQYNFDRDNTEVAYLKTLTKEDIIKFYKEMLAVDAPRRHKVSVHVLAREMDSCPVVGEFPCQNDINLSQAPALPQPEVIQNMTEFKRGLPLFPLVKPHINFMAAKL
The test is described as follows: Dose Response: Fluorescence polarization-based cell-based high throughput dose response assay for inhibitors of insulin-degrading enzyme (IDE). [Related pubchem assays: 434962 (Primary screen (IDE inhibitors in singlicate)), 449730 (Counterscreen (Cytotoxicity in triplicate)), 435028 (Confirmation (IDE inhibitors in triplicate)), 434984 (Summary …. In kind it is functional. On the technique in general: In fluorescence polarisation assays a small probe gives low polarisation when free and higher when bound to something large.

In test [4] the test system is Streptococcus sp. 'group A'. The test is described as follows: Streptococcus pyogenes SK(-)GAS viability under kanamycin – luminescence, BacTiterGlo, confirmation, counter-screen for streptokinase expression inhibitor project, dose response (AID 1900). In kind it is functional, organism-based.
For a further test, the system named is Streptococcus. The test is described as follows: GAS UMAA2166 growth inhibition – luminescence, BacTiterGlo, counter-screen for streptokinase expression inhibitor project, dose response (AID 1915).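 Further: potency for reduction of bacterial viability or growth.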 In kind it is functional, organism-based.
The target in the next test is T2, Streptokinase A (Streptococcus pyogenes serotype M1, UniProt P10520).
T2 sequence (P10520 whole entry): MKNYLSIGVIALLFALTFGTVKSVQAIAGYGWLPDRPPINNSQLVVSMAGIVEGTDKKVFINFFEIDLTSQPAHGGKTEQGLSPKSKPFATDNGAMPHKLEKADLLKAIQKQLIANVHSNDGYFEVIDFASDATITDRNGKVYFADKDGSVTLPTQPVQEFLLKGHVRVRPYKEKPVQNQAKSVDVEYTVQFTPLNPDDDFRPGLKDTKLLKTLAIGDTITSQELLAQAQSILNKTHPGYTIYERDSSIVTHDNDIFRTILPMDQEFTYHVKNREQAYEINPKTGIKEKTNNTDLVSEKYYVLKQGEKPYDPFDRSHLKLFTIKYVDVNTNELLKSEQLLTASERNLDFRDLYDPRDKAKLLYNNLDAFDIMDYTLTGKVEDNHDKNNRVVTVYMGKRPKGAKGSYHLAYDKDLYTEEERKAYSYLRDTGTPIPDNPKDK
The test is described as follows: viability-normalized secreted streptokinase activity reduction – plasminogen activation absorbance, OD405, dose response (AID 1914).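 Further: secreted streptokinase activity via plasminogen activation per viability signal from cell pellet.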 Format: functional, Streptococcus pyogenes M1 GAS.

The nature of test [5]: Luminescence Cell-Based Dose Retest to Confirm Inhibitors of Cancer Stem Cells. [Related pubchem assays (depositor defined):AID2717, AID2721]. The note with it: Homo sapiens. In kind it is functional.
For the next test, the target named is NS3 (Hepatitis C virus, UniProt A3EZJ3). The test is described as follows: PubChem AID 2173. Set-up: species or system Hepacivirus hominis.
For another test, the target named is Cytochrome P450 2D6 (Homo sapiens, UniProt P10635). The test is described as follows: qHTS Assay for Inhibitors and Substrates of Cytochrome P450 2D6. [Related pubchem assays: 410 ]. Format: ADME. Particulars: read-out: Potency. (In qHTS, concentration-response curves come from the screen itself.)
The target of the next test is Cytochrome P450 2C19 (Homo sapiens, UniProt P33261). The test is described as follows: qHTS Assay for Inhibitors and Substrates of Cytochrome P450 2C19. [Related pubchem assays: 410 ]. Format: ADME. The note with it: read-out: Potency.
The nature of test [6]: luciferase reporter signal reduction – luminescence, H4-C neuroglioblastoma cells, dose response (AID 2458).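 Further: H4 neuroglioblastoma cells stably carrying a luciferase reporter gene fusion.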 In kind it is functional, cell-based.
Another test is described as follows: cells. In kind it is functional, cell-based.
Test [7] in a line: alpha-synuclein stem-loop luciferase translation blockers – H4 neuroglioma cells, luminescence, confirmation (AID 1988). In kind it is functional, cell-based.
Test [8] is described as follows: luciferase reporter signal suppression in cells – H4 neuroglioma cells, luminescence, dose response (AID 1990). Format: functional, cell-based.
Test [9] can be described thus: alpha-synuclein stem-loop translation blockers – luminescence, H4 neuroglioblastoma cells, dose confirmation, confirmation (AID 2454).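 Further: H4 neuroglioblastoma cells carrying an alpha-synuclein 5'UTR luciferase reporter; potency for inhibition of the luciferase signal.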 Format: functional, cell-based.
Test [10] has as its target Transitional endoplasmic reticulum ATPase (Homo sapiens, UniProt P55072, C522A). The test is described as follows: C522A mutant p97 ATPase inhibitors, dose response, counter-screen for p97 inhibitor project, biochemical, luminescence (AID 1544).
Test [11] concerns the target Transitional endoplasmic reticulum ATPase (Homo sapiens, UniProt P55072). The test is described as follows: p97 ATPase inhibitors, dose response, biochemical (AID 1534).
Test [12] has as its target T3, Microphthalmia-associated transcription factor (Homo sapiens, UniProt O75030).
T3 sequence (O75030 whole entry): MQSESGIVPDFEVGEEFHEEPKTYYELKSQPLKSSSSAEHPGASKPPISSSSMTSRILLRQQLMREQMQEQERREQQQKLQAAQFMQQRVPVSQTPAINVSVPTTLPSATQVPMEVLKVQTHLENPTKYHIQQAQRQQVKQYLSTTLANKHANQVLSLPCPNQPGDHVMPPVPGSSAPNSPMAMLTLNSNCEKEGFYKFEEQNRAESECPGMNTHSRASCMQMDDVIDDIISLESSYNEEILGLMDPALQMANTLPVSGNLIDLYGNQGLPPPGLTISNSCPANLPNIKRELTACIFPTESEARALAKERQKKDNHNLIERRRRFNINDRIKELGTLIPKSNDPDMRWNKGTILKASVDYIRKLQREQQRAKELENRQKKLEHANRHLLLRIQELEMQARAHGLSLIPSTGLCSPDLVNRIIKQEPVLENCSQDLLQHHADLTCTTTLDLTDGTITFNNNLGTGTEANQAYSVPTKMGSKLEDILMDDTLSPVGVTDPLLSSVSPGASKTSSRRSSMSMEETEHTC
The test is described as follows: reducers of TRPM1 reporter luminescence, concentration series – cell-based, SK-MEL-5, cherry-picked, set 3, MITF inhibitor project, dose response (AID 493073).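 Further: SK-MEL-5 melanoma cells with luciferase driven by the MITF target TRPM1 promoter.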 In kind it is functional.

A short description of test [13]: A Cell Based Secondary Assay To Explore Cytotoxicity of Compounds that Sensitize Mycobacterium Tuberculosis to Beta-Lactam Antibiotics. Format: functional.

Protein Wnt-3a, sequence (P27467 whole entry): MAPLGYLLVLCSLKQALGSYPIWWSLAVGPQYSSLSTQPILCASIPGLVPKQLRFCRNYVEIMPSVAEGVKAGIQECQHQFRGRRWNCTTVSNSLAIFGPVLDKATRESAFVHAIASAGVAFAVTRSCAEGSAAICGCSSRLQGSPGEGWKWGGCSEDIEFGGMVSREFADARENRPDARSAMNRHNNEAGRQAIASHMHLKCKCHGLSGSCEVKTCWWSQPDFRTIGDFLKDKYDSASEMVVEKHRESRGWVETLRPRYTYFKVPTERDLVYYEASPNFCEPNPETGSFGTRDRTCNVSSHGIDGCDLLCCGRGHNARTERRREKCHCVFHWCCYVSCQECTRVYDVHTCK
G2/mitotic-specific cyclin-B1, sequence (P14635 whole entry): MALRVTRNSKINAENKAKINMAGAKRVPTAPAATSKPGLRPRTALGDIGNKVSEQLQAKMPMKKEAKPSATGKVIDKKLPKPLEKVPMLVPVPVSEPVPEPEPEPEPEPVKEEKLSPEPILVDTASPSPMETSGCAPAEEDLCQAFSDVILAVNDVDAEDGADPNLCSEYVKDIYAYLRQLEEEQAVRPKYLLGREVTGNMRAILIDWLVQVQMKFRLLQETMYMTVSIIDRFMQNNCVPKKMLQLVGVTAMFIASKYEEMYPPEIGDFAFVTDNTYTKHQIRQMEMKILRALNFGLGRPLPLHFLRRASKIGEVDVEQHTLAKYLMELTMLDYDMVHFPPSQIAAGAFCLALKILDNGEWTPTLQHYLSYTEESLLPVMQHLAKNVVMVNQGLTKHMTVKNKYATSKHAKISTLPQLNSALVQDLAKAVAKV
NS3, sequence (A3EZJ3 whole entry): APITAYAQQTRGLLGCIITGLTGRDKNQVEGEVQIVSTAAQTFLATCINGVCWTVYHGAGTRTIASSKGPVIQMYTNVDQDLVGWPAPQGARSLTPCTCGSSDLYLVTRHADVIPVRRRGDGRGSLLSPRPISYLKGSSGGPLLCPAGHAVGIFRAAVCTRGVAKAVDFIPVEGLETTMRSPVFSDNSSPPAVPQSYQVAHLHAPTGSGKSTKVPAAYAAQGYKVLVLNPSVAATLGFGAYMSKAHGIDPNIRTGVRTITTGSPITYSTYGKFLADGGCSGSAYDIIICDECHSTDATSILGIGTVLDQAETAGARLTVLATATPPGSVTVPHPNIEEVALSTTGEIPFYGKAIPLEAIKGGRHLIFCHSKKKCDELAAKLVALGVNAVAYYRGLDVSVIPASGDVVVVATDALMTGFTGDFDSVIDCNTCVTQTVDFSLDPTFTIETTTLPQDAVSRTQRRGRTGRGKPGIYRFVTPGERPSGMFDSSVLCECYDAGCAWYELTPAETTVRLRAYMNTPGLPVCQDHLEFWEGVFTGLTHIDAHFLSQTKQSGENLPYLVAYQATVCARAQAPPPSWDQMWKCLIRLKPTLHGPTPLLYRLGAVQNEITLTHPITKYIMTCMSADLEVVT
Cytochrome P450 2C19, sequence (P33261 whole entry, the tested form may be a part): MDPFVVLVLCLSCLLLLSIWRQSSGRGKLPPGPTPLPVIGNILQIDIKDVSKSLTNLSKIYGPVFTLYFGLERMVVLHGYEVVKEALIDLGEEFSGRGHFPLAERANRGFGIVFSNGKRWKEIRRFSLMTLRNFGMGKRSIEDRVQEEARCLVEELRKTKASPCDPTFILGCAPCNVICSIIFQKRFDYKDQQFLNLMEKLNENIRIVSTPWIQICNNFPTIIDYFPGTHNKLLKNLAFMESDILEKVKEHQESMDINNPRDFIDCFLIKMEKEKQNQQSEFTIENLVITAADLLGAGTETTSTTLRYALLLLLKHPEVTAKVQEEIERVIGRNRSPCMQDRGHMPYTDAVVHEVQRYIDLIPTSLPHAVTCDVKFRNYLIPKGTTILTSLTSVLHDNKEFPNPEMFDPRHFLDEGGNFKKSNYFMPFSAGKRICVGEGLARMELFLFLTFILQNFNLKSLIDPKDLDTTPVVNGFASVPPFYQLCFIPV
Transitional endoplasmic reticulum ATPase (Homo sapiens, UniProt P55072, C522A), sequence (P55072 2-806 C522A limits assumed): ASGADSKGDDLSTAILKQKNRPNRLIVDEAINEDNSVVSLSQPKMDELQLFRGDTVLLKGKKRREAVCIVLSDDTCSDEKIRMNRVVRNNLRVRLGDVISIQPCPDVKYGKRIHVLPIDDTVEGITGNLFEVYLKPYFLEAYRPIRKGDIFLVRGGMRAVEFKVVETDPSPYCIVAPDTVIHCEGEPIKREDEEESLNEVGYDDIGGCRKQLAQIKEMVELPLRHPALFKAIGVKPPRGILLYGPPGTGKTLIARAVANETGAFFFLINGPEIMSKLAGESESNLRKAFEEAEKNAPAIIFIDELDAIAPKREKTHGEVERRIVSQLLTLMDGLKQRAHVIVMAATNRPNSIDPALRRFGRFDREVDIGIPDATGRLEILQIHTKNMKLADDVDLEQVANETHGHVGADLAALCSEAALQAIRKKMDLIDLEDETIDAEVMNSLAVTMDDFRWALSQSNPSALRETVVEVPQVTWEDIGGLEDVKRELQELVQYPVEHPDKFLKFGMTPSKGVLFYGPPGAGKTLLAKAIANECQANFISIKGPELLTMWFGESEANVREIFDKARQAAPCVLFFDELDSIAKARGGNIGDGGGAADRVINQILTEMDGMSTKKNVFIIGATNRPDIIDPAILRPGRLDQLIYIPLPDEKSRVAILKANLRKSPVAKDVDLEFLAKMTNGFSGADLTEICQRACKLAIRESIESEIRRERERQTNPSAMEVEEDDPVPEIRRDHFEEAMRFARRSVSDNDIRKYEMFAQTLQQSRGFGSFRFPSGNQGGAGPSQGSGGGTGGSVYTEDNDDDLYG
Cytochrome P450 2D6, sequence (P10635 whole entry): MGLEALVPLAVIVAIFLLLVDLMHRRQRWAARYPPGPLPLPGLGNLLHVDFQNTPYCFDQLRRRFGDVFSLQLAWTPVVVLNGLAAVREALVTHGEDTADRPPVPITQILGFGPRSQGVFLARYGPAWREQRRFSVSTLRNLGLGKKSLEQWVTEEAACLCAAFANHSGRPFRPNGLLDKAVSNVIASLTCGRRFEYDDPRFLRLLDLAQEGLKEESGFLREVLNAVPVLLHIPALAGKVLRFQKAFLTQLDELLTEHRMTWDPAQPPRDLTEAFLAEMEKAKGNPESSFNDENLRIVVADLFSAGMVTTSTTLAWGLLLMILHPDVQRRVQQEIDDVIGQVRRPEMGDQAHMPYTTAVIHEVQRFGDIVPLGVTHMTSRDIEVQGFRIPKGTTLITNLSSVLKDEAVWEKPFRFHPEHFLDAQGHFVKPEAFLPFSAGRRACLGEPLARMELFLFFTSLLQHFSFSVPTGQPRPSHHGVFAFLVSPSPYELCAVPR
Wee1-like protein kinase, sequence (P30291 whole entry): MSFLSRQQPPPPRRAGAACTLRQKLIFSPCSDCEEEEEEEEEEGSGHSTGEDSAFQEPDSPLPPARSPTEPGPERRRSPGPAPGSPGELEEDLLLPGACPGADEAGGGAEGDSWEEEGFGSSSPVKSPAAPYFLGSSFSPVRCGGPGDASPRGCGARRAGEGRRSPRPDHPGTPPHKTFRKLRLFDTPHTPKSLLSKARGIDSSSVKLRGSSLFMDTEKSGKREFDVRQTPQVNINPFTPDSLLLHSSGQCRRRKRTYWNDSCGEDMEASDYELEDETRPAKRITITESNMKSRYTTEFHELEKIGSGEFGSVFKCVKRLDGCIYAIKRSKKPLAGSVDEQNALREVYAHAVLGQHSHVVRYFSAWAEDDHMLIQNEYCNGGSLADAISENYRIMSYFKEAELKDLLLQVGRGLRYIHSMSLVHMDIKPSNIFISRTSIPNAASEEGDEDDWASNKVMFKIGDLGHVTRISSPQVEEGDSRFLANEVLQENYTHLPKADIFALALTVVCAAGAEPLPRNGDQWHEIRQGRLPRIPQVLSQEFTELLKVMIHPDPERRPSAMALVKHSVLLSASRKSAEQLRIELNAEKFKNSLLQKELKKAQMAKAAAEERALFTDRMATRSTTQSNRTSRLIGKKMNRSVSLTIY
Transitional endoplasmic reticulum ATPase (Homo sapiens, UniProt P55072), sequence (P55072 whole entry): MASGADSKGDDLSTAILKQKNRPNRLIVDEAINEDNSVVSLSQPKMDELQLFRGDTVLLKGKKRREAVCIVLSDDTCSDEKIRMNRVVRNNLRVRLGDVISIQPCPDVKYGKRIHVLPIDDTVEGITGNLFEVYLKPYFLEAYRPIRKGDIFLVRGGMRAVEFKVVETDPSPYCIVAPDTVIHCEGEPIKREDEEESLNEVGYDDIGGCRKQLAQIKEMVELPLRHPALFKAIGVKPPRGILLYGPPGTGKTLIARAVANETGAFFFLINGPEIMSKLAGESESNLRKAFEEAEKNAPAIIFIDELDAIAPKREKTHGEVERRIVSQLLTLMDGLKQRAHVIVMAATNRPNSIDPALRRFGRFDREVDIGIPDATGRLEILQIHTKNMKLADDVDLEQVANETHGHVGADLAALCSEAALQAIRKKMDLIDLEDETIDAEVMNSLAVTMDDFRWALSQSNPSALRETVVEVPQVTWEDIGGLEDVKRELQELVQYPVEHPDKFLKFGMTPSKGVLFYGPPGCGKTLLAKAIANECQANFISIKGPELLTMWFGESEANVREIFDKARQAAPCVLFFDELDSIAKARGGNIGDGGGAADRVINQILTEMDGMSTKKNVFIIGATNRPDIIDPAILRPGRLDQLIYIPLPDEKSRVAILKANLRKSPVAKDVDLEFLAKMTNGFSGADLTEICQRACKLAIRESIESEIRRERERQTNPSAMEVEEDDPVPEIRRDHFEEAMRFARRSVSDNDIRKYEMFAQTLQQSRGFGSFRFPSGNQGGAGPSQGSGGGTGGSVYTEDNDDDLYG

For the molecule `Cc1cc(Cl)ccc1N=C(S)Nc1ccccn1`, the EC50 (in [1]; at Wee1-like protein kinase) was > 49.7 µM (not active) throughout.
With `CC1CCN(c2c(NCc3ccc(C(=O)N4c5ccccc5CC4C)cc3)c(=O)c2=O)CC1` (configuration not stated), the IC50 in test [2] is > 80 µM (inactive); at Protein Wnt-3a, 16.4 µM (active); in [3], 17.6 µM (not active); at Insulin-degrading enzyme, 2.98 µM (active).
For the molecule `CCCCCCCCCc1nc2sc3c(c2c(=O)n1NC(=O)c1ccccc1[N+](=O)[O-])CC(C)(C)OC3`, the concentration for a half-maximal effect (EC50) was 1.73 µM (active) in test [4], 63.4 µM (active) in the test with Streptococcus and 2.23 µM (active) at Streptokinase A. The AC50 in [5] is 0.843 µM (active). For the same molecule, the IC50 against NS3 is 11.2 µM (not active).
On to `CCN(CC)[C@@H](C)C(=O)N1c2ccccc2Sc2ccccc21`, for which the AC50 is 20 µM (inconclusive) at Cytochrome P450 2D6 and 31.6 µM (inconclusive) at Cytochrome P450 2C19.
`O=Cc1cn(Cc2ccccc2F)c2ccccc12`: the EC50 in test [6] was 3.85 µM (active); in the test “cells”, 1.75 µM (active); in [7], < 0.1 µM (active); in [8], 14 µM (active); in [9], 2.11 µM (active).
For `Cn1cc(C(=O)CCl)c2ccccc21`, the IC50 in [10] and in test [11] was > 50 µM (not active) in each case. In test [12], the AC50 was 8.48 µM (active).
With `O=C(Nc1ccc([N+](=O)[O-])cc1)c1cc2ccccc2nc1Cl`, the CC50 in test [13] is > 40 µM (active).
